# Assay results reported in US6054435A, “6-O-substituted macrolides having antibacterial activity” (priority 1999, dated 2000).
# Tests used:
# Experiment in all cases: in vitro antibacterial activity (MIC), agar dilution
# Assay type in all cases: cell-based
# [1] = tested on: Streptococcus Pneumonia ATCC6303; settings: organism code XX; BHI agar, 35-37° C., 20 to 24 hours; unit assumed
# Method in brief: (§1)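 Test compound serially diluted in Brain Heart Infusion agar across twelve plates; inocula of 1:100 dilution (1:10 for slow growers such as Streptococcus) applied by Steers replicator. MIC taken visually as lowest concentration giving no growth, slight haze or sparse isolated colonies versus drug-free growth control.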
# [2] = tested on: Streptococcus Pneumonia 5979; settings: organism code ZZ; BHI agar, 35-37° C., 20 to 24 hours; unit assumed
# Method in brief: as §1
# [3] = tested on: Escherichia coli DC-2; settings: organism code SS; BHI agar, 35-37° C., 20 to 24 hours; unit assumed
# Method in brief: as §1
# [4] = tested on: Micrococcus luteus ATCC 4698; settings: organism code PP; BHI agar, 35-37° C., 20 to 24 hours; unit assumed
# Method in brief: (§2)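 Agar dilution in BHI agar, twelve successive compound dilutions. Inoculum 1:100, or 1:10 for slow-growing strains (e.g. Streptococcus), replicator-spotted. Read by eye; MIC = lowest concentration with no growth, slight haze or sparsely isolated colonies relative to growth control.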
# [5] = tested on: Staphylococcus aureus 1775; settings: organism code GG; BHI agar, 35-37° C., 20 to 24 hours; unit assumed
# Method in brief: as §1
# [6] = tested on: Mycobacterium smegmatis ATCC 114; settings: organism code UU; BHI agar, 35-37° C., 20 to 24 hours; unit assumed
# Method in brief: as §1
# [7] = tested on: Micrococcus luteus ATCC 9341; settings: organism code OO; BHI agar, 35-37° C., 20 to 24 hours; unit assumed
# Method in brief: as §2
# [8] = tested on: Staphylococcus aureus CMX 553; settings: organism code FF; BHI agar, 35-37° C., 20 to 24 hours; unit assumed
# Method in brief: as §1
# [9] = tested on: Staphylococcus aureus NCTC10649M; settings: organism code EE; BHI agar, 35-37° C., 20 to 24 hours; unit assumed
# Method in brief: as §1
# [10] = tested on: Staphylococcus aureus CMX 642A; settings: organism code DD; BHI agar, 35-37° C., 20 to 24 hours; unit assumed
# Method in brief: as §1
# [11] = tested on: Candida albicans CCH 442; settings: organism code TT; BHI agar, 35-37° C., 20 to 24 hours; unit assumed
# Method in brief: as §1
# [12] = tested on: Streptococcus pyogenes 930; settings: organism code MM; BHI agar, 35-37° C., 20 to 24 hours; unit assumed
# Method in brief: as §1
# [13] = tested on: Nocardia Asteroides ATCC9970; settings: organism code VV; BHI agar, 35-37° C., 20 to 24 hours; unit assumed
# Method in brief: as §1
# [14] = tested on: Staphylococcus aureus ATCC 6538P; settings: organism code AA; BHI agar, 35-37° C., 20 to 24 hours; unit assumed
# Method in brief: as §1
# [15] = tested on: Staphylococcus epidermidis 3519; settings: organism code HH; BHI agar, 35-37° C., 20 to 24 hours; unit assumed
# Method in brief: as §1
# [16] = tested on: Streptococcus agalactiae CMX 508; settings: organism code KK; BHI agar, 35-37° C., 20 to 24 hours; unit assumed
# Method in brief: as §1
# [17] = tested on: Escherichia coli JUHL; settings: organism code QQ; BHI agar, 35-37° C., 20 to 24 hours; unit assumed
# Method in brief: as §1
# [18] = tested on: Streptococcus pyogenes PIU 2548; settings: organism code NN; BHI agar, 35-37° C., 20 to 24 hours; unit assumed
# Method in brief: as §1
# [19] = tested on: Haemophilis Influenzae DILL AMP R; settings: organism code WW; BHI agar, 35-37° C., 20 to 24 hours; unit assumed
# Method in brief: as §1
# [20] = tested on: Streptococcus bovis A-5169; settings: organism code JJ; BHI agar, 35-37° C., 20 to 24 hours; unit assumed
# Method in brief: as §1
# [21] = tested on: Escherichia coli SS; settings: organism code RR; BHI agar, 35-37° C., 20 to 24 hours; unit assumed
# Method in brief: as §1
# [22] = tested on: Streptococcus pyogenes EES61; settings: organism code LL; BHI agar, 35-37° C., 20 to 24 hours; unit assumed
# Method in brief: as §1
# [23] = tested on: Streptococcus Pneumonia GYR 1171; settings: organism code YY; BHI agar, 35-37° C., 20 to 24 hours; unit assumed
# Method in brief: as §1
# [24] = tested on: Enterococcus faecium ATCC 8043; settings: organism code II; BHI agar, 35-37° C., 20 to 24 hours; unit assumed
# Method in brief: as §1
# [25] = tested on: Streptococcus Pneumonia 5649; settings: organism code ZZA; BHI agar, 35-37° C., 20 to 24 hours; unit assumed
# Method in brief: as §1
# [26] = tested on: Staphylococcus aureus A-5278; settings: organism code CC; BHI agar, 35-37° C., 20 to 24 hours; unit assumed
# Method in brief: as §1
# [27] = tested on: Staphylococcus aureus A5177; settings: organism code BB; BHI agar, 35-37° C., 20 to 24 hours; unit assumed
# Method in brief: as §1
SMILES,MIC [1],MIC [2],MIC [3],MIC [4],MIC [5],MIC [6],MIC [7],MIC [8],MIC [9],MIC [10],MIC [11],MIC [12],MIC [13],MIC [14],MIC [15],MIC [16],MIC [17],MIC [18],MIC [19],MIC [20],further results
CC[C@H]1OC(=O)[C@H](C)C(=O)[C@H](C)[C@@H](O[C@@H]2O[C@H](C)C[C@H](N(C)C)[C@H]2O)[C@](C)(OCC#Cc2ccc(-c3cccs3)s2)C[C@@H](C)C(=O)[C@H](C)[C@H]2NC(=O)O[C@@]21C [Example 25],≤ 0.004 µg/mL,0.25 µg/mL,> 100 µg/mL,0.2 µg/mL,25 µg/mL,0.39 µg/mL,0.05 µg/mL,0.1 µg/mL,0.2 µg/mL,0.2 µg/mL,12.5 µg/mL,1.56 µg/mL,0.39 µg/mL,0.2 µg/mL,0.1 µg/mL,0.1 µg/mL,100 µg/mL,0.2 µg/mL,2 µg/mL,0.1 µg/mL,MIC [21]: 0.2 µg/mL; MIC [22]: 0.005 µg/mL; MIC [23]: ≤ 0.004 µg/mL; MIC [24]: 0.1 µg/mL; MIC [25]: 0.125 µg/mL; MIC [26]: 25 µg/mL; MIC [27]: 0.1 µg/mL
CC[C@H]1OC(=O)[C@H](C)C(=O)[C@H](C)[C@@H](O[C@@H]2O[C@H](C)C[C@H](N(C)C)[C@H]2O)[C@](C)(OC/C=C/c2ccc3ncc(-c4ccco4)cc3c2)C[C@@H](C)C(=O)[C@H](C)[C@H]2NC(=O)O[C@@]21C [Example 39],0.06 µg/mL,2 µg/mL,> 100 µg/mL,0.2 µg/mL,> 100 µg/mL,0.39 µg/mL,0.02 µg/mL,0.2 µg/mL,0.2 µg/mL,0.2 µg/mL,> 100 µg/mL,6.2 µg/mL,0.1 µg/mL,0.2 µg/mL,0.2 µg/mL,0.01 µg/mL,> 100 µg/mL,0.2 µg/mL,4 µg/mL,0.01 µg/mL,MIC [21]: 0.78 µg/mL; MIC [22]: 0.01 µg/mL; MIC [23]: 0.03 µg/mL; MIC [24]: 0.1 µg/mL; MIC [25]: 0.25 µg/mL; MIC [26]: > 100 µg/mL; MIC [27]: 0.2 µg/mL
CC[C@H]1OC(=O)[C@H](C)C(=O)[C@H](C)[C@@H](O[C@@H]2O[C@H](C)C[C@H](N(C)C)[C@H]2O)[C@](C)(OC/C=C/c2cncc(Br)c2)C[C@@H](C)C(=O)[C@H](C)[C@H]2NC(=O)O[C@@]21C [Example 40],0.015 µg/mL,> 128 µg/mL,50 µg/mL,0.2 µg/mL,> 100 µg/mL,0.39 µg/mL,0.02 µg/mL,0.2 µg/mL,0.2 µg/mL,0.2 µg/mL,> 100 µg/mL,50 µg/mL,0.1 µg/mL,0.1 µg/mL,0.2 µg/mL,0.02 µg/mL,100 µg/mL,0.1 µg/mL,4 µg/mL,0.02 µg/mL,MIC [21]: 0.39 µg/mL; MIC [22]: 0.02 µg/mL; MIC [23]: 0.015 µg/mL; MIC [24]: 0.05 µg/mL; MIC [25]: 0.25 µg/mL; MIC [26]: > 100 µg/mL; MIC [27]: 0.2 µg/mL
CC[C@H]1OC(=O)[C@H](C)C(=O)[C@H](C)[C@@H](O[C@@H]2O[C@H](C)C[C@H](N(C)C)[C@H]2O)[C@](C)(OC/C=C/c2cnc(-c3cncnc3)s2)C[C@@H](C)C(=O)[C@H](C)[C@H]2NC(=O)O[C@@]21C [Example 59],≤ 0.004 µg/mL,4 µg/mL,50 µg/mL,0.1 µg/mL,> 100 µg/mL,3.1 µg/mL,0.01 µg/mL,0.1 µg/mL,0.1 µg/mL,0.1 µg/mL,> 100 µg/mL,6.2 µg/mL,0.02 µg/mL,0.1 µg/mL,0.1 µg/mL,0.01 µg/mL,50 µg/mL,0.2 µg/mL,4 µg/mL,≤ 0.005 µg/mL,MIC [21]: 0.2 µg/mL; MIC [22]: 0.01 µg/mL; MIC [23]: ≤ 0.004 µg/mL; MIC [24]: 0.02 µg/mL; MIC [25]: 0.5 µg/mL; MIC [26]: > 100 µg/mL; MIC [27]: 0.1 µg/mL
